Test results as given in US10287334B2, “Non-narcotic CRMP2 peptides targeting sodium channels for chronic pain” (priority 2014, dated 2019).
“Also recorded” adds a separate entry of the source. Like-named read-outs stand apart in the source and are kept apart here.

Legend:
[1] = test system: rat spared nerve injury (SNI) model; format: in vivo
[2] = test system: rat spared nerve injury (SNI) model; format: in vivo; remark: listed apart in the source
[3] = test system: rat dorsal root ganglion (DRG) neurons; test: Ouabain-induced increase in cytosolic Na+ (SBFI imaging) in DRG neurons; format: cell-based
naïve male SD rats = details: tat-CSM-1S by spinal delivery, over a 24 hour period
[4] = SNI rats, dose not given, p<0.05 vs BL-Post SNI

Compound: CN1CC[C@]23c4c5ccc(O)c4O[C@H]2[C@@H](O)C=C[C@H]3[C@H]1C5 [morphine]
- antihyperalgesic effect in SNI (reference drugs) ([1]; rat, in vivo): Antihyperalgesic effects
- antiallodynic effect in SNI (reference drugs) ([2]; rat, in vivo): Antiallodynic effects

Compound: Protox-II: a spider toxin that preferentially blocks NaV1.7 (YCQKWMWTCDSERKCCEGMVCRLWCKKKLW)
- ouabain-induced increase in [Na+]c ([3]; 10 μM Protox-II, 1 mM ouabain): inhibited; also recorded: attenuate

Compound: NC1=N[C@H](O)[C@H]2[C@H]3O[C@]4(O)O[C@@H]([C@@H](O)[C@@]2(N1)[C@@H]4O)[C@]3(O)CO [tetrodotoxin]
- ouabain-induced increase in [Na+]c [3]: inhibited; also recorded: attenuate

Compound: NCC1(CC(=O)O)CCCCC1 [gabapentin]
- antihyperalgesic effect in SNI (reference drugs) [1, 4]: Antihyperalgesic effects
- antiallodynic effect in SNI (reference drugs) [2, 4]: Antiallodynic effects
- motor impairment / sedation on the rotarod (naïve male SD rats): decrease in the ability of naïve rats to remain on the rotating rod
- motor impairment / sedation on the rotarod (naïve male SD rats; listed as Gabapentin): significant sedation/motor impairment
